# Results published in PMC4898786 (Nature, 2016).
# How the values were obtained:
# [1] = target: ts3 SERT (Y110A, I291A, T439S) (Homo sapiens, UniProt P31645, C554A/C580A/C622A/I291A/T439S/Y110A); experiment: [14C]5-HT uptake in transfected HEK293 cells, Michaelis-Menten; type: cell-based
# ts2 SERT (I291A, T439S) = ts2 SERT (I291A, T439S) (Homo sapiens, UniProt P31645, C554A/C580A/C622A/I291A/T439S)
compound,measurement,setting,value
"NCCc1c[nH]c2ccc(O)cc12 [serotonin, 5-hydroxytryptamine]",serotonin transport activity,[1],No detectable transport activity
same,Vmax of serotonin transport,"ts2 SERT (I291A, T439S)",21 ± 5 pmol/min
same,Km,"ts2 SERT (I291A, T439S); read-out: KM of serotonin transport",4.5 ± 0.6 µM
